What was measured:
Test in all cases: radiometric filter-binding kinase assay
MARK2 (human) = MARK2 (human) (UniProt Q7KZI7)
MST4 (human) = MST4 (human) (UniProt Q9P289)
NEK2 (human) = NEK2 (human) (UniProt P51955)
NEK6 (human) = NEK6 (human) (UniProt Q9HC98)
[1] = system: PAK2 (human), Q13177 [T402E]
PAK4 (human) = PAK4 (human) (UniProt O96013)
PAK6 (human) = PAK6 (human) (UniProt Q9NQU5)
PAK7 (human) = PAK7 (human) (UniProt Q9P286)
PIM2 (human) = PIM2 (human) (UniProt Q9P1W9)
PIM3 (human) = PIM3 (human) (UniProt Q86V86)
PKN2 (human) = PKN2 (human) (UniProt Q16513)
PLK1 (human) = PLK1 (human) (UniProt P53350)
RIPK2 (human) = RIPK2 (human) (UniProt O43353)
RPS6KA3 KD1 KD2 (human) = RPS6KA3 KD1 KD2 (human) (UniProt P51812)
RPS6KA5 KD1 KD2 (human) = RPS6KA5 KD1 KD2 (human) (UniProt O75582)
[2] = system: SGK1 (human), O00141 [S422D]
SRPK1 (human) = SRPK1 (human) (UniProt Q96SB4)
Chain of SRPK1 (human) (Q96SB4 whole entry, looked up): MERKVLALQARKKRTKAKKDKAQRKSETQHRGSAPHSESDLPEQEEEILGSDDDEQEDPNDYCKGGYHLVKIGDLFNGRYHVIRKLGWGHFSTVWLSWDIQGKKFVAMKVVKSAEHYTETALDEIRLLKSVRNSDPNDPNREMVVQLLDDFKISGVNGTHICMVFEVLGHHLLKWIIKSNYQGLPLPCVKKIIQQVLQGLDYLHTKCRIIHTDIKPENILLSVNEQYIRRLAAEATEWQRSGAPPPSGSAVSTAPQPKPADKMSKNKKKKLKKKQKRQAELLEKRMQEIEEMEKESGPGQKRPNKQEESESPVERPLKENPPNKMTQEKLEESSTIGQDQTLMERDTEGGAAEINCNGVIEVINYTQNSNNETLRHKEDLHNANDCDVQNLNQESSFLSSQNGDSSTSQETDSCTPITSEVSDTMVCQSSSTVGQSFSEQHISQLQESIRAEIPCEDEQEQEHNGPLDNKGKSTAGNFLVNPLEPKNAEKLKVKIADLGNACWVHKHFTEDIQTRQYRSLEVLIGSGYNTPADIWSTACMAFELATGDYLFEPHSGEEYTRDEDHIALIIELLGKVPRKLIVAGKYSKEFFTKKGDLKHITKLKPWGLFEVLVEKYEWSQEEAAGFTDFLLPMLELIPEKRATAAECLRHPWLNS

Chain of PKN2 (human) (Q16513 whole entry, looked up): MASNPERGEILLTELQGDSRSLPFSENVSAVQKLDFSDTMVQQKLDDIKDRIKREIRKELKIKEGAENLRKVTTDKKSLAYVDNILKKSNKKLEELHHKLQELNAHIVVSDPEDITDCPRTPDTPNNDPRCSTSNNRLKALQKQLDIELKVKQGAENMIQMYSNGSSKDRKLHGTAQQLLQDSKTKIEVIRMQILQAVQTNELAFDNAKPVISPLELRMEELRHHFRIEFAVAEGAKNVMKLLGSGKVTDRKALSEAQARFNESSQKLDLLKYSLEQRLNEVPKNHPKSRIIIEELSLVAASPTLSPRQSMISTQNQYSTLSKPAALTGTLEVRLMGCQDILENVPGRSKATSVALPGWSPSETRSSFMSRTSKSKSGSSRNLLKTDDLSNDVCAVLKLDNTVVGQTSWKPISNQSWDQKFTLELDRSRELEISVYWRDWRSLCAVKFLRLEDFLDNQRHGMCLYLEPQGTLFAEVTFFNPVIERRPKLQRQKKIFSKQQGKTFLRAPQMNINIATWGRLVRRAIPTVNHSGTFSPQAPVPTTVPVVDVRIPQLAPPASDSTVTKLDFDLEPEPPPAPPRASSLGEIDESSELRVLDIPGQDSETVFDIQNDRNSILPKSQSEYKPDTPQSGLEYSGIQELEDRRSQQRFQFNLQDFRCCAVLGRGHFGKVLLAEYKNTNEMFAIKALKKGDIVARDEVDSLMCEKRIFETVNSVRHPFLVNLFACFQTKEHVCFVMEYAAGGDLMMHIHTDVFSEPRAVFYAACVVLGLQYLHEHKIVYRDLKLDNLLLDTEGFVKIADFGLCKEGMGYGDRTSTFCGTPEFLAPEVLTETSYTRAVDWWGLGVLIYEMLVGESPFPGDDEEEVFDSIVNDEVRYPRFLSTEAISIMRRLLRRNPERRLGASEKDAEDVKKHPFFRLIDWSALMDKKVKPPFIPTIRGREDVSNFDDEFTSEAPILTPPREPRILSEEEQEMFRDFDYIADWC
Chain of NEK6 (human) (Q9HC98 whole entry, looked up): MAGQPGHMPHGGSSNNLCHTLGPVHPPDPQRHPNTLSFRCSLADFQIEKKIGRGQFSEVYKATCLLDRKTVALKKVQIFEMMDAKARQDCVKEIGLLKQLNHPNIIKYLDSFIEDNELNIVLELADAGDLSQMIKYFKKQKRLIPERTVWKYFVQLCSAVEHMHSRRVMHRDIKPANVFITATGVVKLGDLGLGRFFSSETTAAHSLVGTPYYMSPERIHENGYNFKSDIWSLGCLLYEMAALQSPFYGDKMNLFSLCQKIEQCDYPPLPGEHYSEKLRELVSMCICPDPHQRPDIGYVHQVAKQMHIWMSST
Chain of RPS6KA3 KD1 KD2 (human) (P51812 whole entry, looked up): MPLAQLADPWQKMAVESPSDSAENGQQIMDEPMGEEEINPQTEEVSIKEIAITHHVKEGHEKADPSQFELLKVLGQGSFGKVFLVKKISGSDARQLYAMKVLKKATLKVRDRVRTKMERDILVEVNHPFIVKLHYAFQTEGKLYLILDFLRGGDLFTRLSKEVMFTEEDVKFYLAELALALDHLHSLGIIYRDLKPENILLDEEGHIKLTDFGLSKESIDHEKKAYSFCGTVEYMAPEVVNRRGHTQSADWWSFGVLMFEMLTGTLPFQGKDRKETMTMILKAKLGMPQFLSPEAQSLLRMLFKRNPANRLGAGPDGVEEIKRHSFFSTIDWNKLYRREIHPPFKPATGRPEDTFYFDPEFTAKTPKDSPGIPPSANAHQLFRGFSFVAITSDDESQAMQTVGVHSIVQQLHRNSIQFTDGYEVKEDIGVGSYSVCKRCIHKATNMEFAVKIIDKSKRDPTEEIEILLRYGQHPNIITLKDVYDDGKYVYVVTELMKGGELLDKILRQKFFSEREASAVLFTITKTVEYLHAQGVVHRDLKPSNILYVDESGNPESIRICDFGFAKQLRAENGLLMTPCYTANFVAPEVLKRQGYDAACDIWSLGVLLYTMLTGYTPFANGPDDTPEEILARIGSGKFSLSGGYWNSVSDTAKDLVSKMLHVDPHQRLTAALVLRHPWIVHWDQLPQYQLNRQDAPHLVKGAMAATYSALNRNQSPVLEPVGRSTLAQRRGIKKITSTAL
Chain of SGK1 (human), O00141 [S422D] (O00141 whole entry S422D, looked up): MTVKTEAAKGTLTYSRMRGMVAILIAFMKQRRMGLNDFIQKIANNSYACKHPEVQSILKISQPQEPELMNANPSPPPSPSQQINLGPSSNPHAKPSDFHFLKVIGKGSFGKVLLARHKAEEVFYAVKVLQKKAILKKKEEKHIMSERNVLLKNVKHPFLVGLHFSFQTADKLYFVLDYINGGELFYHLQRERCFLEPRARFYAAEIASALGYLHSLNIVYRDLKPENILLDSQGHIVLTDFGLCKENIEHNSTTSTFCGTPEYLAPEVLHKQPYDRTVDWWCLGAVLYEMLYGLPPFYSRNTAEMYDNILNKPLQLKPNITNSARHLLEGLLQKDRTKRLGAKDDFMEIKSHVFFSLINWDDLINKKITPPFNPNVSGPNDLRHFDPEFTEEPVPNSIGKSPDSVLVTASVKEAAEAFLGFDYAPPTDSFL
Chain of PAK6 (human) (Q9NQU5 whole entry, looked up): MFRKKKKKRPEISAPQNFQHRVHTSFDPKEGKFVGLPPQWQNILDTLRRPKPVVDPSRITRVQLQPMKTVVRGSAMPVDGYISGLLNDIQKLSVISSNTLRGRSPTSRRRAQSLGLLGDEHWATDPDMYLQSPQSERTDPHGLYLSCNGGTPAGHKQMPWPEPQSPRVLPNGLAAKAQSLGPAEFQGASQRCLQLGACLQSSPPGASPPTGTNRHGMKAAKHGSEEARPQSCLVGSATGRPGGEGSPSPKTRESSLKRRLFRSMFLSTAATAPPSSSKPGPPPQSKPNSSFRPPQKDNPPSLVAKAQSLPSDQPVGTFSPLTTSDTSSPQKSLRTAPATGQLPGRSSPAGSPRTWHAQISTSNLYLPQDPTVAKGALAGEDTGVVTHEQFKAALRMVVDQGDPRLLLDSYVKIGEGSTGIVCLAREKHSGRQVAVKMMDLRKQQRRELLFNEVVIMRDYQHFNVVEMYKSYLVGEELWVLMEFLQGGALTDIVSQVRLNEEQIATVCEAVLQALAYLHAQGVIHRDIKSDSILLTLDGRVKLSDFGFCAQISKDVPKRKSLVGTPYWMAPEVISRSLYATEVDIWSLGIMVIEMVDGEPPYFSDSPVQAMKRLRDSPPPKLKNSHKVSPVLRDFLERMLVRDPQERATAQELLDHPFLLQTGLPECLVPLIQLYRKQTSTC
Chain of PLK1 (human) (P53350 whole entry, looked up): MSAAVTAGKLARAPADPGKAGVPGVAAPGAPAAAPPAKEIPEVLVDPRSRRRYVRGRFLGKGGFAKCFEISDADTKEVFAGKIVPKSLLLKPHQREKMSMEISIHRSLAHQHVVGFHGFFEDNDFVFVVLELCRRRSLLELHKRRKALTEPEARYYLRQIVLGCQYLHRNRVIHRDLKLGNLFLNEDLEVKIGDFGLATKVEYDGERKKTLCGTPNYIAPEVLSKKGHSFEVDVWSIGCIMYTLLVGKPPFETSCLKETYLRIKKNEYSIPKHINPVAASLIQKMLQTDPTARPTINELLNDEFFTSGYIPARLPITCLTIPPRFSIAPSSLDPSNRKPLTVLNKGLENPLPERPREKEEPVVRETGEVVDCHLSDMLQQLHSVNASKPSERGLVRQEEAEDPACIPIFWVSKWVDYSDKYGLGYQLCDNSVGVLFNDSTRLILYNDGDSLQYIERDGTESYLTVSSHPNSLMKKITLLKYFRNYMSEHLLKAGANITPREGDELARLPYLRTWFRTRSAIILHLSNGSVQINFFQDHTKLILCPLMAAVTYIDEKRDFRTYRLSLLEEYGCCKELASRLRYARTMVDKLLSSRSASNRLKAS

Structure (SMILES): N#Cc1c(O)c2c(-c3ccc(-c4ccccc4O)cc3)csc2[nH]c1=O
- residual activity (MARK2 (human); compound 10.0 µM): 64%
- residual activity (MARK2 (human); compound 100.0 µM): 49%
- residual activity (MST4 (human); compound 10.0 µM): 74%
- residual activity (MST4 (human); compound 50.0 µM): 57%
- residual activity (MST4 (human); compound 100.0 µM): 14%
- residual activity (NEK2 (human); compound 10.0 µM): 73%
- residual activity (NEK2 (human); compound 50.0 µM): 52%
- residual activity (NEK2 (human); compound 100.0 µM): 19%
- residual activity (NEK6 (human); compound 10.0 µM): 104%
- residual activity (NEK6 (human); compound 50.0 µM): 94%
- residual activity (NEK6 (human); compound 100.0 µM): 137%
- residual activity ([1]; compound 10.0 µM): 94%
- residual activity ([1]; compound 100.0 µM): 63%
- residual activity (PAK4 (human); compound 10.0 µM): 52%
- residual activity (PAK4 (human); compound 50.0 µM): 38%
- residual activity (PAK4 (human); compound 100.0 µM): 41%
- residual activity (PAK6 (human); compound 10.0 µM): 69%
- residual activity (PAK6 (human); compound 50.0 µM): 92%
- residual activity (PAK6 (human); compound 100.0 µM): 82%
- residual activity (PAK7 (human); compound 10.0 µM): 58%
- residual activity (PAK7 (human); compound 50.0 µM): 50%
- residual activity (PAK7 (human); compound 100.0 µM): 39%
- residual activity (PIM2 (human); compound 10.0 µM): 71%
- residual activity (PIM2 (human); compound 50.0 µM): 17%
- residual activity (PIM2 (human); compound 100.0 µM): 18%
- residual activity (PIM3 (human); compound 10.0 µM): 18%
- residual activity (PIM3 (human); compound 50.0 µM): 5%
- residual activity (PIM3 (human); compound 100.0 µM): 7%
- residual activity (PKN2 (human); compound 10.0 µM): 85%
- residual activity (PKN2 (human); compound 50.0 µM): 85%
- residual activity (PKN2 (human); compound 100.0 µM): 59%
- residual activity (PLK1 (human); compound 10.0 µM): 88%
- residual activity (PLK1 (human); compound 50.0 µM): 28%
- residual activity (PLK1 (human); compound 100.0 µM): 25%
- residual activity (RIPK2 (human); compound 10.0 µM): 110%
- residual activity (RIPK2 (human); compound 100.0 µM): 139%
- residual activity (RPS6KA3 KD1 KD2 (human); compound 10.0 µM): 74%
- residual activity (RPS6KA3 KD1 KD2 (human); compound 50.0 µM): 27%
- residual activity (RPS6KA3 KD1 KD2 (human); compound 100.0 µM): 13%
- residual activity (RPS6KA5 KD1 KD2 (human); compound 10.0 µM): 69%
- residual activity (RPS6KA5 KD1 KD2 (human); compound 50.0 µM): 39%
- residual activity (RPS6KA5 KD1 KD2 (human); compound 100.0 µM): 42%
- residual activity ([2]; compound 10.0 µM): 103%
- residual activity ([2]; compound 50.0 µM): 54%
- residual activity ([2]; compound 100.0 µM): 48%
- residual activity (SRPK1 (human); compound 10.0 µM): 107%
- residual activity (SRPK1 (human); compound 50.0 µM): 42%
- residual activity (SRPK1 (human); compound 100.0 µM): 35%
